Measurements: patent US20080103152A1, “Novel Diazabicyclononene Derivative” (Actelion Pharmaceuticals Ltd, priority 2004, published 2008)

How the values were obtained:
[1] = tested on: double transgenic rats with human renin and human angiotensinogen; assay: Hemodynamic measurements (telemetry method), mean arterial blood pressure; type: in vivo, rat; details: for blood pressure decrease (maximal decrease of mean arterial pressure versus control group): hypertensive female double transgenic rats
Method: Hemodynamic Measurements (Telemetry Method)
Animals—Female double transgenic rats with human renin and human angiotensinogen were purchased from RCC Ltd, Füllingsdorf, Switzerland. All animals were maintained under identical conditions and had free access to normal pelleted rat chow and water. Rats were initially treated with enalapril (1 mg/kg/day) during 2 months. After approximately two weeks following cessation of enalapril treatment the double transgenic rats become hypertensive and reach mean arterial blood pressures in the range of 160-170 mmHg.
Transmitter implantation—The rats were anaesthetised with a mixture of 90 mg/kg Ketamin-HCl (Ketavet, Parke-Davis, Berlin FRG) and 10 mg/kg xylazin (Rompun, Bayer, Leverkusen, FRG) i.p. The pressure transmitter was implanted under aseptic conditions into the peritoneal cavity with the sensing catheter placed in the descending aorta below the renal arteries pointing upstream. The transmitter was sutured to the abdominal musculature and the skin closed.
Telemetry-System—Telemetry units were obtained from Data Sciences (St. Paul, Minn.). […] The tip of the catheter was filled with a viscous gel that prevents blood reflux and was coated with an antithrombogenic film to inhibit thrombus formation. The implants (length=[…], diameter=1.2 cm) weighted 9 g and have a typical battery life of 6 months. A receiver platform (RPC-1, Data Sciences) connected the radio signal to digitized input that was sent to a dedicated personal computer (Compaq, deskpro). Arterial pressures were calibrated by using an input from an ambient-pressure reference (APR-1, Data Sciences). Systolic, mean and diastolic blood pressure was expressed in millimeter of mercury (mmHg).
[…] The effect of the test substance is expressed as maximal decrease of mean arterial pressure (MAP) in the treated group versus the control group.

recombinant human renin = target: T1, recombinant human renin (Homo sapiens, UniProt P00797); assay: Primary renin inhibition assay: IC50 in buffer, 384 well MTP (Ang I measured by EIA); type: biochemical; details: human tetradecapeptide substrate, 37° C. for 3 h, read-out: IC50 of renin inhibition (Ang I decrease)
T1 sequence (P00797 67-406): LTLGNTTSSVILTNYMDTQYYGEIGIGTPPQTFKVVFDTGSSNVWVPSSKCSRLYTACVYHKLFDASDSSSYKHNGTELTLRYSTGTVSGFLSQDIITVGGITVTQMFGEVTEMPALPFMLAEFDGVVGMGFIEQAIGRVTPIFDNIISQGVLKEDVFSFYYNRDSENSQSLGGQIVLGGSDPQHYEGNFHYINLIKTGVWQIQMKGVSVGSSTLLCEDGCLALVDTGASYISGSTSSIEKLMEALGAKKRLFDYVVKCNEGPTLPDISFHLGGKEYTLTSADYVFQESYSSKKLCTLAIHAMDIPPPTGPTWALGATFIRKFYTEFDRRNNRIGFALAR
Method: 1. Enzyme Immuno Assay (EIA) to Estimate Ang I Accumulation and Renin Inhibition
1.1 Preparation of Ang I-BSA Conjugate
1.3 mg (1 μmol) of Ang I [1-10 (Bachem, H-1680)] and 17 mg (0.26 μmol) of BSA (Fluka, 05475) were dissolved in 4 mL of 0.1M phosphate buffer, pH 7.4, after which 2 mL of a 1:100 dilution of glutaraldehyde in H2O (Sigma G-5882) was added dropwise. The mixture was incubated overnight at 4° C., then dialyzed against 2 liters of 0.9% NaCl, twice for 4 h at rt, followed by dialysis against 2 liters of PBS 1× overnight at rt. The solution was then filtered with a Syringe filter, 0.45 μm (Nalgene, Cat. No. 194-2545). The conjugate can be stored in polypropylene tubes in 0.05% sodium azide at 4° C. for at least 12 months.
1.2 Preparation of BSA-Ang I Coated MTP […]
The renin assay was adapted from an assay described before (Fischli W. et al., Hypertension, 1991, 18:22-31) and consists of two steps: in the first step, recombinant human renin is incubated with its substrate (commercial human tetradecapeptide renin substrate) to create the product Angiotensin I (Ang I). In the second step, the accumulated Ang I is measured by an immunological assay (enzyme immuno assay, EIA). […]

O=C(C1=C(c2ccc(CCCOc3c(F)ccc(F)c3Cl)cc2)C[C@@H]2CNC[C@H]1N2)N(Cc1cccc(Cl)c1Cl)C1CC1 [Compound (I′), (1R,5S)-7-{4-[3-(2-Chloro-3,6-difluorophenoxy)propyl]phenyl}-3,9-diazabicyclo[3.3.1]non-6-ene-6-carboxylic acid cyclopropyl-(2,3-dichlorobenzyl)amide]
activity in the animal model (in words) ([1]; oral gavage, double transgenic rats): active
blood pressure decrease (maximal decrease of mean arterial pressure versus control group) ([1]; single oral dose of 3 mg/kg): 13 mmHg
blood pressure decrease (maximal decrease of mean arterial pressure versus control group) ([1]; single oral dose of 10 mg/kg): 26 mmHg
IC50 (recombinant human renin): 0.5 nM
